Laboratory results as given in PMC6737591, “Abstracts from the 22nd International Symposium on Signal Transduction at the Blood–Brain Barriers” (Fluids and Barriers of the CNS, 2019).

Tests used:
[1] = molecular target: T1, Creatine transporter (CRT) (Homo sapiens, UniProt P48029); test: [14C]cyclocreatine / [14C]creatine uptake by hCMEC/D3 cells; format: cell-based; set-up: hCMEC/D3 cells, which are immortalized human brain microvascular endothelial cells; endogenous in cells; host or cells: hCMEC/D3 cells; conditions: for suppression of [14C]cyclocreatine uptake: [14C]cyclocreatine 9 µM, 37 °C; for inhibition of uptake by CRT-targeting siRNA: CRT mRNA expression reduced by 97%, substrate 9 µM
T1 sequence (P48029 1-635): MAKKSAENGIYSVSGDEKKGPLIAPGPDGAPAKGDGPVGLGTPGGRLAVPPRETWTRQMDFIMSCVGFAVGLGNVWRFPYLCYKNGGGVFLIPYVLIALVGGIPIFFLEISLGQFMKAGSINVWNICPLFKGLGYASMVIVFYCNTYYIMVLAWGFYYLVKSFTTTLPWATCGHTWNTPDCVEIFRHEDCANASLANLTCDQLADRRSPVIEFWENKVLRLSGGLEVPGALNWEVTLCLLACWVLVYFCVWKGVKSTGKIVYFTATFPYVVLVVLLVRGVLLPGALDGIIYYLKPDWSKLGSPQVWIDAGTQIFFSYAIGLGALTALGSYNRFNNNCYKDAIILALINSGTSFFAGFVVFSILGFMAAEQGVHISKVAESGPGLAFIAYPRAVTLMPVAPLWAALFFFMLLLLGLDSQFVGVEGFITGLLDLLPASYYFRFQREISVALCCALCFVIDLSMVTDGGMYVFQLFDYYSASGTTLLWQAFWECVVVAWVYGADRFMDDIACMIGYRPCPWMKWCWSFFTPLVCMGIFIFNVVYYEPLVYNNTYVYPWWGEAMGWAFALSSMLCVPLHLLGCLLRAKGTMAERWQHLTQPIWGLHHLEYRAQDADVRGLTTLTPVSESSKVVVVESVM
Procedure: (§1) Methods: Cells were incubated with [14C]cyclocreatine (9 µM) and [14C]creatine (9 µM) for the indicated times at 37 °C in the presence or absence of several compounds. siRNAs were transfected by lipofection. Protein and mRNA expressions were quantified by LC–MS/MS and qPCR, respectively.

[2] = molecular target: T1, Creatine transporter (CRT); test: [14C]cyclocreatine / [14C]creatine uptake by HEK293 cells; format: cell-based; set-up: endogenous in cells; host or cells: HEK293 cells; conditions: for inhibition of uptake by CRT-targeting siRNA: CRT protein expression reduced by 42%, substrate 9 µM
Procedure: as §1

[3] = test system: Rat primary brain endothelial, pericyte and astroglial cell cultures; test: Kainate damage and drug protection in BBB culture model
Text: In animal models of epilepsy induced by kainic acid, the primary ligand of ionotropic kainate receptors, BBB damage occurs, but the effect of kainate on brain endothelial cells has not been studied. Our aim was to examine the presence of kainate receptors and the effects of kainate on cultured cells of the BBB and to test anti-inflammatory and antioxidant drugs to protect against kainate-induced changes. Rat primary brain endothelial, pericyte and astroglial cell cultures were used to study cell viability by impedance measurement and cell morphology. BBB permeability was measured on a model made from the three cell types. The production of nitrogen monoxide and reactive oxygen species was followed by fluorescent probes. Four drugs were tested to protect against kainate-induced changes. The mRNA expression of kainate receptors and nitric oxide synthases (NOS) were studied by RT-PCR.

[4] = test system: transgenic hAPP mice; test: PCN or NAC purified diet in transgenic hAPP mice; format: in vivo
Text: Methods: To test our hypothesis, transgenic hAPP mice received a purified diet containing the PXR activator pregnenolone 16α-carbonitrile (PCN) or the ROS scavenger N-acetyl-L-cysteine (NAC). We assessed P-gp protein expression and transport activity, Aβ brain and plasma levels, capillary leakage, renal function and cognition to test the PCN or NAC effect in hAPP mice.

[5] = test system: murine brain microvascular endothelial cells (MBMECs); test: NMDAR modulators on brain endothelial cells (electrophysiology, Ca2+, TEER, migration); format: cell-based; conditions: for NMDAR mediated current: whole cell recorded MBMECs, compared to control conditions
Text: In neurodegenerative disorders, concentrations of extracellular neurotransmitter in the central nervous system (CNS) are out of balance. Glutamatergic dysregulation and extracellular glycine accumulation cause excitotoxicity and subsequent neuronal death. This process is largely mediated by N-methyl-D-aspartate receptor (NMDAR) activation. NMDARs are ionotropic receptors permeable for positive ions. In the CNS, they are composed by two obligatory NR1 subunits containing glycine binding sites and two NR2 subunits that are activated by glutamate. NR3 subunits which are less abundant in the CNS are activated by glycine. While neuronal NMDARs are well studied, their functional role on endothelial cells (ECs) is still to be investigated. ECs of the Blood Brain Barrier (BBB) are exposed to the extracellular milieu of the CNS and therefore to high concentrations of neurotransmitters. In this study, we investigated the effect of NMDAR modulators on murine brain microvascular endothelial cells (MBMECs).

[6] = test system: astrocytes; test: Uptake in astrocytes cultured on the basolateral (brain) side; format: cell-based; conditions: rat astrocytes below bovine brain endothelial cells; fluorophore-labelled
Procedure: The propensity of Tat to facilitate brain endothelial cell adherence -and uptake as well as BBB permeation of NR2B9c and the N-dimer was assessed using primary bovine brain endothelial cells cultured in contact with rat astrocytes4.

[7] = Chemical stability in cell media supplemented with 10% FBS by UPLC; format: in vitro ADME; conditions: for % of initial remained intact: UPLC, cell media supplemented with 10% FBS, 4 h incubation, fluorophore-labelled constructs
Text: All constructs were stable in PBS.

[8] = test system: primary mouse brain microvascular endothelial cells (pMBMECs); test: Effector OT-I CD8+ T-cell interaction with antigen-pulsed pMBMECs under physiological flow; format: cell-based; conditions: SIINFEKL and MHC class I on WT pMBMECs
Text: Methods and results: We used primary mouse brain microvascular endothelial cells (pMBMECs) as an in vitro model for BBB. […] We next investigated, if naive CD8+ T cells can interact with pMBMECs under physiological flow. […] This prompted us to investigate how endothelial Ag-presentation contributes to the interaction of effector OT-I CD8+ T-cells with pMBMECs under physiological flow.

[9] = substrate: NC1=NCCN1CC(=O)O; test: [14C]cyclocreatine / [14C]creatine uptake by HEK293 cells; format: cell-based; conditions: other: HEK293 cells, 37 °C, saturable kinetics
Procedure: as §1

[10] = 12-month old mice treated for 3 weeks

Q: Which “suppression of [14C]cyclocreatine uptake” value [1] does the source give for `NC(N)=NCCC(=O)O` [GPA, guanidinopropionic acid] here?
A: 91%

Q: What about the “inhibition of [14C]cyclocreatine uptake” value ([2]; HEK293 cells, inhibitor 10 mM, [14C]cyclocreatine 9 µM, 37 °C) of the same molecule?
A: 96%

Q: What does the source list for `C=C(C)[C@H]1CN[C@H](C(=O)O)[C@H]1CC(=O)O` [Kainate, kainic acid]?
A: production of nitric oxide (NO) in brain endothelial cells ([3]; fluorescent probes): increased; viability or morphology of astroglial cells ([3]; rat primary astroglial cells): unchanged; effect on brain endothelial cells (viability by impedance) ([3]; rat primary brain endothelial cells, concentration- and time-dependent): damaged

Q: What does the source list for `CC(=O)N[C@@H](CS)C(=O)O` [NAC, N-acetyl-L-cysteine]?
A: barrier leakage [4, 10]: reduced; renal function [4, 10]: improved

Q: For `CC(=O)[C@H]1[C@H](C#N)C[C@H]2[C@@H]3CC=C4C[C@@H](O)CC[C@]4(C)[C@H]3CC[C@@]21C` [PCN, pregnenolone 16α-carbonitrile], which Aβ brain levels ([4]; hAPP mice fed for 21 months) is on record?
A: lowered

Q: What about the “P-gp protein expression and transport activity” value ([4]; hAPP mice fed for 21 months) of the same molecule?
A: restored

Q: What about the cognition ([4]; hAPP mice fed for 21 months) of the same molecule?
A: improved

Q: With `NC1=NCCN1CC(=O)O` [[14C]cyclocreatine, cyclocreatine] as the molecule, how does the “inhibition of uptake by CRT-targeting siRNA” value (“inhibition of uptake” below) [1] read?
A: 70%

Q: And the “inhibition of uptake” value ([2]; HEK293 cells)?
A: 33%

Q: For `CN(CC(=O)O)C(=N)N` [creatine], which “inhibition of uptake” value [1] is on record?
A: 63%

Q: And the “suppression of [14C]cyclocreatine uptake” value [1]?
A: 91%

Q: And the inhibition at 10000 µM ([2]; HEK293, read-out: inhibition of [14C]cyclocreatine uptake)?
A: 97%

Q: And the “inhibition of uptake” value ([2]; HEK293 cells)?
A: 37%

Q: For `CC1=NN(c2ccccc2)C(=O)C1` [edaravone], which “protection against the reduced cell viability and increased permeability caused by kainate” value ([3]; kainate-treated cells / BBB model) is on record?
A: protected

Q: Which “transendothelial electrical resistance (TEER)” value ([5]; MBMECs) does the source give for `N[C@@H](CCC(=O)O)C(=O)O` [glutamate] here?
A: No changes

Q: What about the NMDAR mediated current [5] of the same molecule?
A: did neither evoke any

Q: With `NCC(=O)O` [glycine] as the molecule, how does the MBMEC migration ([5]; MBMECs) read?
A: impaired

Q: And the “intracellular Ca2+ levels” value ([5]; MBMECs)?
A: increase

Q: And the “transendothelial electrical resistance (TEER)” value ([5]; MBMECs)?
A: reduced

Q: What about the NMDAR mediated current [5] of the same molecule?
A: bigger

Q: Which results are given for `O=C(O)c1cccnc1C(=O)O` [quinolinic acid]?
A: transendothelial electrical resistance (TEER) ([5]; MBMECs): No changes; NMDAR mediated current [5]: did neither evoke any

Q: Which “uptake in astrocytes cultured on the basolateral (brain) side” value [6] does the source give for “NR2B9c: clinically relevant peptide drug entity (1 kDa) (KLSSIESDV; UniProt Q13224 1476-1484, looked up, fragment)” here?
A: not

Q: What about the “% of initial remained intact” value [7] of the same molecule?
A: ~ 90%

Q: With “SIINFEKL [cognate peptide antigen for OT-I CD8+ T cells]” as the molecule, how does the T-cell crawling [8] read?
A: prohibited

Q: What about the T-cell migration rates [8] of the same molecule?
A: decreased

Q: Which results are given for “Tat: 11-residue cationic peptide, tool to facilitate delivery of peptide drug entities into cells and across barriers”?
A: uptake in astrocytes cultured on the basolateral (brain) side [6]: observed; % of initial remained intact [7]: ~ 50%; integrity in cell media (in words) ([7]; cell media, conclusion statement): extensive degradation

B1: Creatine transporter (CRT) (Homo sapiens) (protein)
chain: T1 sequence (P48029 1-635)
notes: endogenous in cells; host or cells: HEK293 cells
Q: Which Km [9] does the source give for B1 here?
A: 188 µM

Q: And the Vmax [9]?
A: 273 pmol/mg protein/min
